Measured values reported in patent publication US20180193294A1, “Dehydroabietic acid (DHAA) derivatives for use as ion channel openers” (priority 2015, published 2018).

Legend:
[1] = test system: dorsal root ganglion (DRG) neurons; experiment: Resting membrane potential of DRG neurons, whole-cell current clamp; assay type: cell-based, mice; settings: 10 μM, pH 7.4, 120 s application
Protocol: (§1) All animal experiments were approved by the local Animal Care and Use Committee and followed international guidelines. Five female 7-12 week-old C57BL/6 mice (Scanbur) were used for this study. The mice were anaesthetized with isoflurane and decapitated. Dorsal root ganglia (DRG) were dissected from all spinal levels and enzymatically digested with collagenase (250 CDU/ml) for 15 min, and then trypsin (1 mg/ml) was added for another 30 min. The ganglia were centrifuged and resuspended in Leibovitz L-15 media with glutamine, supplemented with 10% fetal calf serum, 38 mM glucose, 24 mM NaHCO3 and penicillin/streptomycin. The ganglia were triturated and the DRG neurons plated on poly-D-lysine coated plastic coverslips. The neurons were cultured at 37° C. with 5% CO2 for 2-3 days before the electrophysiological recordings.
(§2) All manual electrophysiological recordings were performed at room temperature (20-23° C.), using a GeneClamp 500B amplifier (for oocytes) or a Axopatch 200B amplifier (for manual patch clamp of CHO—K1 cells and DRG neurons) and a Digidata 1440A digitizer and pClamp 10 software (all from Molecular Devices, Inc., Sunnyvale, Calif., USA). Compounds were dissolved to 100 mM in 99.5% EtOH and stored at −20° C. Compounds were diluted in extracellular solution to the desired test concentration.
(§3) CHO—K1 Cells were plated on coverslips 2 h before the manual electrophysiological recordings. Coverslips with CHO—K1 cells or DRG neurons were placed in a recording chamber and perfused with extracellular solution by a gravity-fed perfusion system. Substances were applied by a pressurized, automated OctaFlow perfusion system (ALA Scientific Instruments). The signals were sampled at 5-20 kHz after low-pass filtering at 2-5 kHz. For CHO—K1 cells the intracellular solution contained (in mM): 120 K-gluconate, 10 KCl, 5 EGTA, 10 HEPES, 4 Mg-ATP, 0.3 Na-GTP, pH 7.3; the extracellular solution contained (in mM): 135 NaCl, 4 KCl, 10 HEPES, 1 MgCl2, 1.8 CaCl2, 10 glucose, pH 7.4. Currents were evoked in CHO—K1 cells in whole-cell voltage-clamp mode from a holding potential of −80 mV by 100-ms long, 10-mV steps ranging from −80 to +80 mV.
(§4) For DRG neurons the intracellular solution contained (in mM): 120 K-gluconate, 10 KCl, 1 EGTA, 10 HEPES, 4 Mg-ATP, 0.3 Na-GTP, pH 7.3; the extracellular solution contained (in mM): 144 NaCl, 2.5 KCl, 10 HEPES, 0.5 MgCl2, 2 CaCl2, 10 glucose, pH 7.4. A liquid-junction potential of approximately −14 mV was corrected for. […] Small and medium sized DRG neurons were selected for whole-cell current-clamp recording. 10 μM of the compounds were applied for 120 s to study the effect on the resting membrane potential, and for 45-120 s to study the effects on evoked action potentials. To evoke action potentials 800-ms depolarizing pulses
The compound effect on the resting membrane potential Vm was determined by subtracting the control pre-compound Vm from the Vm at the end of the 120 s application of test compound.

[2] = test system: dorsal root ganglion (DRG) neurons; experiment: Evoked action potentials (excitability) of DRG neurons, current clamp; assay type: cell-based, mice; settings: 10 μM; for effect on the after hyperpolarization: cell with single action potential; for effect on resting potential, cell with single action potential: constant current pulse; for effect on train of action potentials: continuous pulse
Protocol: as §1, §2, §3, §4

WT Shaker K channel = WT Shaker K channel (Drosophila melanogaster, UniProt P08510, DEL6-46); experiment: physchem; assay type: cell-based; settings: for pKa: Drosophila melanogaster, from pH dependence of G(V) shift
WT Shaker K channel, sequence (P08510 other isoform, or with tags, fused parts or gaps DEL6-46): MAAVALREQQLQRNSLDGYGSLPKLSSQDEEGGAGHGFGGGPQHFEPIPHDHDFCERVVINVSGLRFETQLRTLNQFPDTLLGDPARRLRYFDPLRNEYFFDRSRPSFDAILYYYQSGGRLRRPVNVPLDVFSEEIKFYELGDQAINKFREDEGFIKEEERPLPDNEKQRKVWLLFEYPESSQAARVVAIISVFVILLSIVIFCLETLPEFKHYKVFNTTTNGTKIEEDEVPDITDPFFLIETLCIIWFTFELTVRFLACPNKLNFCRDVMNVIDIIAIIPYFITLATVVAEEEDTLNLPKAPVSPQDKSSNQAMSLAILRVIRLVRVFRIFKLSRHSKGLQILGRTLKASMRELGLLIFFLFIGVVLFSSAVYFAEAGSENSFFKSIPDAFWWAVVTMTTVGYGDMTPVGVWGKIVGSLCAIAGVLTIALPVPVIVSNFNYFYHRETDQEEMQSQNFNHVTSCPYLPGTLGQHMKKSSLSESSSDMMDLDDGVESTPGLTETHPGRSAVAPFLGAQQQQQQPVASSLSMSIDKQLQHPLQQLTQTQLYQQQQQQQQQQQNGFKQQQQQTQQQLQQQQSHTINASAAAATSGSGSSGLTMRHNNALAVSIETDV
Excerpt: A Shaker K channel is a Kv channel from the fruit fly Drosophila melanogaster. It is homologous to the human Kv1-type ion channels.
All animal experiments were approved by the local Animal Care and Use Committee and followed international guidelines. A modified Shaker H4 channel^30, with removed N-type inactivation (ShH4IR)^31, here called the wild type (WT) channel, was expressed in oocytes. In addition, a modified 3R Shaker K channel where two introduced positive charged arginines (M356R and A359R) in addition to one native arginine (R362) makes the channel more sensitive to DHA^16, was expressed in oocytes and in a CHO—K1 stable cell line.
African clawed frogs (Xenopus laevis) were anesthetized with 1.4 g/L ethyl 3-aminobenzoate methanesulfonate salt (tricaine). After an incision through the abdomen a batch of oocytes were removed. Clusters of oocytes were separated by incubation for ˜1 h in a Ca-free O—R2 solution (in mM: 82.5 NaCl, 2 KCl, 5 HEPES, and 1 MgCl2; pH adjusted to 7.4 by NaOH) containing Liberase Blendzyme. The oocytes were then incubated at 8° C. in a modified Barth's solution (MBS; in mM: 88 NaCl, 1 KCl, 2.4 NaHCO3, 15 HEPES, 0.33 Ca(NO3)2, 0.41 CaCl2, and 0.82 MgSO4; pH adjusted to 7.6 by NaOH) supplemented with penicillin (25 U/ml), streptomycin (25 μg/ml), and sodium pyruvate (2.5 mM) 2-24 hours before injection. Fifty nl of cRNA (50 pg) were injected into each oocyte using a Nanoject injector (Drummond Scientific, Broomall, Pa.). Injected oocytes were kept at 8° C. in MBS until one day before electrophysiological recordings, when they were incubated at 16° C. All chemicals were supplied from Sigma-Aldrich (Stockholm, Sweden) if not stated otherwise.
as §2
The oocyte was placed in a bath surrounded by 1K extracellular solution that contained (in mM): 88 NaCl, 1 KCl, 15 HEPES, 0.4 CaCl2, and 0.8 MgCl2, pH adjusted to 7.4 by NaOH (reaching a sodium concentration of ˜100 mM). Control solution was added to the bath with a gravity driven perfusion system. Compound solution was added to the bath manually with a syringe. Two glass microelectrodes were inserted into the oocyte using micromanipulators. […] All channels were closed when the potential was clamped to −80 mV and this voltage was set as the holding potential. Currents were evoked from the holding potential of −80 mV by 100-ms long, 5-mV steps ranging from −80 up to +50 mV (WT) and +70 mV (3R).
Conductance GK(V) was calculated as GK(V)=[…], (Eq. 1) where IK is the average current from the steady-state phase at the end of each 100-ms pulse, V is the membrane voltage, and Vrev is the reversal potential for K^+, (set to −80 mV for the oocytes, and calculated to be −89 mV for the CHO—K1 cells).
G(V)=A/(1+exp((V1/2−V)/s))^n (Eq. 2) where A is amplitude of the curve, V is the absolute membrane voltage, V1/2 is the midpoint, s is the slope and n is an exponent set to 4^17. The compound-induced G(V) shift was determined at the 10% level of the maximum conductance in control solution^17. The compound-induced G(V) shift in CHO—K1 was quantified by subtracting the control V1/2 from the compound V1/2 when n was set to 1.
Data for concentration and pH dependent G(V) shifts (ΔV) in oocytes were fit with a dose-response equation ΔV=ΔVmax/(1+c1/2/c), (Eq. 3) where Δvmax is the maximal shift, c1/2 is half maximal effective concentration/pKa value and c is the concentration.

Row | Compound | shift of the resting membrane potential (ΔVm) [1] | effect on the after hyperpolarization [2] | effect on resting potential, cell with single action potential [2] | effect on train of action potentials [2] | G(V) shift for WT relative to 100 μM DHAA (WT Shaker K channel; 100 μM, pH 7.4) [times] | G(V) shift for WT (WT Shaker K channel; 100 μM, pH 7.4, Xenopus oocytes) [mV] | pKa (WT Shaker K channel; 100 μM) | current amplitude increase compared to DHAA (WT Shaker K channel; WT channel at pH 7.4) [times] | current amplitude increase compared to DHA (A=exp(−ΔV/4.7)) (WT Shaker K channel; WT, 100 μM, pH 7.4) [times]
1 | CC(C)c1ccc2c(c1)C(C(=O)O)CC1[C@](C)(C(=O)O)CCC[C@]21C (some centres unmarked) [Wu35] | −1.1±0.4 | only a very small effect | almost no effect | almost no effect on the same cell |  |  |  |  | 
2 | C[C@@]1(C(=O)O)CCC[C@]2(C)c3cc(Cl)c(Cl)c(Cl)c3CCC12 (stereo partly drawn) [Wu50, (1R,4aS)-6,7,8-trichloro-1,4a-dimethyl-1,2,3,4,4a,9,10,10a-octahydrophenanthrene-1-carboxylic acid] |  | pronounced effect | made the resting potential more negative | completely abolished all action potentials | ~10 | −21.2 | 6.8 | 56 | 25
3 | CO/N=C1\CC2[C@](C)(C(=O)O)CCC[C@]2(C)c2cc(Br)c(C(C)C)cc21 (stereo partly drawn) [Wu32, (1R,4aS,E)-6-bromo-7-isopropyl-9-(methoxyimino)-1,4a-dimethyl-1,2,3,4,4a,9,10,10a-octahydrophenanthrene-1-carboxylic acid] | intermediately potent hyperpolarizers |  |  |  |  |  | 6.1 |  | 
